Laboratory results taken from patent publication US20240116985A1, “STAPLED PEPTIDES AND METHODS THEREOF” (priority 2020, published 2024).

Target: T1, full-length beta-Catenin (Uniprot ID P35222) (Homo sapiens, UniProt P35222)
T1 construct: 10 nM full-length beta-Catenin (Uniprot ID P35222)
T1 sequence (P35222 1-781): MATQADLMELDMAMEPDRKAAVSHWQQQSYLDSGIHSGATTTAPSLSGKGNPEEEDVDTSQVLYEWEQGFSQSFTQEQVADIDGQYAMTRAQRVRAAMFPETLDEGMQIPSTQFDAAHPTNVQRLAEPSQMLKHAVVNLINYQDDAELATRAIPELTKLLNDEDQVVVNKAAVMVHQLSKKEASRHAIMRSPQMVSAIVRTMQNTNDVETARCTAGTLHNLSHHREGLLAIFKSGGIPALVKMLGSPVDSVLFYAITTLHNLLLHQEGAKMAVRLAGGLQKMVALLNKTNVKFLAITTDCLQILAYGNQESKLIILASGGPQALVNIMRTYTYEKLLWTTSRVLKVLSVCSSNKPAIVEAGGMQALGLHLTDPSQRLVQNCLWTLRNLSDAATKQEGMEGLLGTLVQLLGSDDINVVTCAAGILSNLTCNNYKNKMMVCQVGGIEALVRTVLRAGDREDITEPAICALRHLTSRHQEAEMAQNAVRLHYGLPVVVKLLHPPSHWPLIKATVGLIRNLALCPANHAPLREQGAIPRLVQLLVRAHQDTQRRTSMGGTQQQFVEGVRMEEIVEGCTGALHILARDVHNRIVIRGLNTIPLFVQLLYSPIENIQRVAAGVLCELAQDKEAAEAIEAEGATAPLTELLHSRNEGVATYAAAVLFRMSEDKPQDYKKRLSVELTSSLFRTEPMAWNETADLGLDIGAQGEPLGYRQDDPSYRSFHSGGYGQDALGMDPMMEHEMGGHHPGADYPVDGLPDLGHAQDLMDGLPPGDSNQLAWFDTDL
Assay: Fluorescence polarization IC50 (beta-catenin / 5FAM-TCF4 10-53 competition)
Assay type: binding
Settings: fluorescence polarization; read-out: beta-Catenin FP IC50

Row | SMILES | IC50 [µM]
1 | CC(=O)N1CCC[C@]12CC=CCCCC1(CCCC=CCCCOC(=O)N3CC[C@@](C(=O)N[C@@H](Cc4ccccc4)C(=O)N[C@@H](Cc4csc5ccccc45)C(=O)N[C@@H](CCO)C(N)=O)(C3)NC(=O)[C@H](CC(N)=O)NC(=O)[C@H](Cc3cscn3)NC(=O)[C@H](C)NC(=O)[C@H](CCCCNC(C)C)NC(=O)[C@H](CCC(N)=O)NC(=O)[C@H](CC(=O)O)NC1=O)NC(=O)[C@H](CC1CCCCC1)NC(=O)[C@H](CC(N)=O)NC2=O (stereo partly drawn) [I-2072, Ac-PL3-Asn-Cha-B5-Asp-Gln-iPrLys-Ala-4Thz-Asn-PyrS2-Phe-BztA-Hse-NH2] | 8.26
2 | CC(=O)N1CCC[C@]12CC=CCCCC1(CCCC=CCCCOC(=O)N3CC[C@@](C(=O)N[C@@H](Cc4ccsc4)C(=O)N[C@@H](Cc4csc5ccccc45)C(=O)N[C@@H](CCC(N)=O)C(N)=O)(C3)NC(=O)[C@H](CC(N)=O)NC(=O)[C@H](Cc3ccccc3)NC(=O)[C@H](C)NC(=O)[C@H](C)NC(=O)[C@H]([C@@H](C)O)NC(=O)[C@H](CC(N)=O)NC1=O)NC(=O)[C@H](CC(C)(C)C)NC(=O)[C@H](CN(CC(=O)O)CC(F)(F)F)NC2=O (stereo partly drawn) [I-2131, Ac-PL3-TfeGA-Npg-B5-Asn-Thr-Ala-Ala-Phe-Asn-PyrS2-3Thi-BztA-Gln-NH2] | 3.22
3 | CC(=O)N1CCC[C@]12CC=CCCCC1(CCCC=CCCCOC(=O)N3CC[C@@](C(=O)N[C@@H](Cc4ccsc4)C(=O)N[C@@H](Cc4csc5ccccc45)C(=O)N[C@@H](CCC(N)=O)C(N)=O)(C3)NC(=O)[C@H](CC(N)=O)NC(=O)[C@H](Cc3ccccc3)NC(=O)[C@H](C)NC(=O)[C@H](C)NC(=O)[C@H](CC(N)=O)NC(=O)[C@H](CC(C)C)NC1=O)NC(=O)[C@H](CC(C)(C)C)NC(=O)[C@H](CC(=O)O)NC2=O (stereo partly drawn) [I-1563, Ac-PL3-Asp-Npg-B5-Leu-Asn-Ala-Ala-Phe-Asn-PyrS2-3Thi-BztA-Gln-NH2] | 2.85
4 | CC(=O)N1CCC[C@]12CC=CCCCC1(CCCC=CCCCOC(=O)N3CC[C@@](C(=O)N[C@@H](Cc4ccsc4)C(=O)N[C@@H](Cc4csc5ccccc45)C(=O)N[C@@H](CCC(N)=O)C(N)=O)(C3)NC(=O)[C@H](CC(N)=O)NC(=O)[C@H](Cc3ccccc3)NC(=O)[C@H](C)NC(=O)[C@H](C)NC(=O)[C@H]([C@@H](C)O)NC(=O)[C@H](CC(N)=O)NC1=O)NC(=O)[C@H](CC(C)(C)C)NC(=O)[C@H](Cc1ccccc1C(=O)O)NC2=O (single isomer, unassigned) [I-2136, Ac-PL3-2COOHF-Npg-B5-Asn-Thr-Ala-Ala-Phe-Asn-PyrS2-3Thi-BztA-Gln-NH2] | 5.82
5 | CC(=O)N1CCC[C@]12CC=CCCCC1(CCCC=CCCCOC(=O)N3CC[C@@](C(=O)N[C@@H](Cc4ccsc4)C(=O)N[C@@H](Cc4csc5ccccc45)C(=O)N[C@@H](CCC(N)=O)C(N)=O)(C3)NC(=O)[C@H](CC(C)C)NC(=O)[C@H](Cc3ccccc3)NC(=O)[C@H](C)NC(=O)[C@H](C)NC(=O)[C@H](Cn3cc(CC4(C(=O)O)CCCCC4)nn3)NC(=O)[C@H](CC(=O)O)NC1=O)NC(=O)[C@H](CC(C)(C)C)NC(=O)[C@H](CC(=O)O)NC2=O (stereo partly drawn) [I-2483, Ac-PL3-Asp-Npg-B5-Asp-[CH2CChCO2H]TriAzDap-Ala-Ala-Phe-Leu-PyrS2-3Thi-BztA-Gln-NH2] | 0.005
6 | CC(=O)N1CCC[C@]12CC=CCCCC1(CCCC=CCCCOC(=O)N3CC(C(=O)N[C@@H](Cc4ccccc4C(F)(F)F)C(=O)N[C@@H](Cc4csc5ccccc45)C(=O)N[C@@H](CCC(N)=O)C(N)=O)(C3)NC(=O)[C@H](CC(C)C)NC(=O)[C@H](Cc3ccccc3)NC(=O)[C@H](C)NC(=O)[C@H](C)NC(=O)[C@H](Cc3cccc(C(=O)O)c3)NC(=O)[C@H](CC(=O)O)NC1=O)NC(=O)[C@H](CC(C)(C)C)NC(=O)[C@H](CC(=O)O)NC2=O (stereo partly drawn) [I-2610, Ac-PL3-Asp-Npg-B5-Asp-3COOHF-Ala-Ala-Phe-Leu-Az2-2F3MeF-BztA-Gln-NH2] | 0.215
